From PMC10248798, “Arabidopsis nicotianamine synthases comprise a common core-NAS domain fused to a variable autoinhibitory C terminus” (The Journal of Biological Chemistry, 2023)

Tests used:
Type in all cases: biochemical
[1] = biological target: T1, MetK (Escherichia coli, UniProt P0A817); experiment: one-pot coupled synthesis of nicotianamine with MtnN and AtNAS1; conditions: coupled to AtNAS1 and MtnN
T1 construct: full length, C-terminal His6 tag (pET-21b), Ni-NTA purified from E. coli
T1 sequence (P0A817 2-384): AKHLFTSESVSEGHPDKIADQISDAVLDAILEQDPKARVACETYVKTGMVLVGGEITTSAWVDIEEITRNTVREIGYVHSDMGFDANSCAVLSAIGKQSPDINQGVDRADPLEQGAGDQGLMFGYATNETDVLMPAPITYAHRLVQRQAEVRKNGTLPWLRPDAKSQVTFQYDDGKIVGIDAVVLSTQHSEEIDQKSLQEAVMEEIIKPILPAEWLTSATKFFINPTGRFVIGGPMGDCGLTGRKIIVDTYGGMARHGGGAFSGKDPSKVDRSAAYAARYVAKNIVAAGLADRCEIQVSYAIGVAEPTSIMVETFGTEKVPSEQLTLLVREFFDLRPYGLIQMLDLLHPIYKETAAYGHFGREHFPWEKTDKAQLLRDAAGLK

[2] = biological target: T2, MtnN (Escherichia coli, UniProt P0AF12); experiment: TLC; conditions: 2.5 mM MTA, 50 mM Tris/HCl pH 8.7, 30 °C
T2 construct: full length, C-terminal His6 tag (pET-21b), Ni-NTA purified from E. coli
T2 sequence (P0AF12 whole entry): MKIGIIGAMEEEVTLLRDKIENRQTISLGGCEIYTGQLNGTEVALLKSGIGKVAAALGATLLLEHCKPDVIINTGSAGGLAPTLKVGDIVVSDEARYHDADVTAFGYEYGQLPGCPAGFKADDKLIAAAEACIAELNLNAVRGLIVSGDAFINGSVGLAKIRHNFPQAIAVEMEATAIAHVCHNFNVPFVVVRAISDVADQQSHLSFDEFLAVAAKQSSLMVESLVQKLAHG

[3] = biological target: T3, AtNAS4 ΔC47 (Arabidopsis thaliana, UniProt Q9C7X5); experiment: coupled spectrophotometric assay (MtnN/AdeD, A265); conditions: 0.125 mM SAM, 50 mM Tris-HCl pH 8.7, 37 °C
T3 construct: gene NAS4; core-NAS domain, 47 C-terminal residues removed, C-terminal His6 tag (pET-21b), E. coli
T3 sequence (Q9C7X5 1-277): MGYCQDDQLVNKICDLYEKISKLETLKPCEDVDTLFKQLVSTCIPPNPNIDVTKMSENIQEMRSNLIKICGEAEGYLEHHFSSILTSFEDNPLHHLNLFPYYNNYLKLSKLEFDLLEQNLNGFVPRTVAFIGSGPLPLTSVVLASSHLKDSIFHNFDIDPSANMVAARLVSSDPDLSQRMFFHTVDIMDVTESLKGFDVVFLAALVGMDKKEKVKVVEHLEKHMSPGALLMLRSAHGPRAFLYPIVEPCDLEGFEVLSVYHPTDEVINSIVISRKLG

[4] = biological target: T4, AtNAS3 ΔC42 (Arabidopsis thaliana, UniProt O80483); experiment: coupled spectrophotometric assay (MtnN/AdeD, A265); conditions: 0.125 mM SAM, 50 mM Tris-HCl pH 8.7, 37 °C
T4 construct: gene NAS3; core-NAS domain, 42 C-terminal residues removed, C-terminal His6 tag (pET-21b, NheI/NotI), E. coli
T4 sequence (O80483 1-278): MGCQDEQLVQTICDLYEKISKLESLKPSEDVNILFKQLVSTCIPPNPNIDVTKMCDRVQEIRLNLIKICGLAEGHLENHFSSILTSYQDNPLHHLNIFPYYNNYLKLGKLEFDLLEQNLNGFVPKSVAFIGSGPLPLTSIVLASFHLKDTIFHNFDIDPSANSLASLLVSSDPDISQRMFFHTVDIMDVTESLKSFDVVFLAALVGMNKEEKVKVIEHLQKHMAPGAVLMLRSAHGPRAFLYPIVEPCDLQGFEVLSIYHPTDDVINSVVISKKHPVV

[5] = biological target: T5, AdeD (Escherichia coli, UniProt P31441); experiment: TLC; conditions: 3 mM adenine, 50 mM Tris/HCl pH 8.7, 30 °C
T5 construct: gene ade; full length, C-terminal His6 tag (pET-21b), Ni-NTA purified from E. coli
T5 sequence (P31441 whole entry): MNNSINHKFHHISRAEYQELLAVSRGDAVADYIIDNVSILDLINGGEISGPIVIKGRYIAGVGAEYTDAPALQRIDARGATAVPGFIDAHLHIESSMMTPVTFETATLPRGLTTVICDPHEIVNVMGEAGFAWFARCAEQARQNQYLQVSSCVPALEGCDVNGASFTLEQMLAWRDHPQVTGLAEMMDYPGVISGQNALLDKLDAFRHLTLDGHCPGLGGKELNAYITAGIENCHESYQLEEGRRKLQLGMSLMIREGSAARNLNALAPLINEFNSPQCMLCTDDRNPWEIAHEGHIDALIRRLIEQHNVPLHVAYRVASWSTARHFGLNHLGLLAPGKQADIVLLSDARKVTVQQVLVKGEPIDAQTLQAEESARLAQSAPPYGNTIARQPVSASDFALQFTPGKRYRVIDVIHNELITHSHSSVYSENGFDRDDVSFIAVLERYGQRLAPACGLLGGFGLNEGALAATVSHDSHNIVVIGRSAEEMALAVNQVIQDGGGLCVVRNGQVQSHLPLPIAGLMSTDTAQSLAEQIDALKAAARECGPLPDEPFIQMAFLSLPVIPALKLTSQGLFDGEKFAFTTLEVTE

Nc1ncnc2c1ncn2[C@@H]1O[C@H](COP(=O)(O)OP(=O)(O)OP(=O)(O)O)[C@@H](O)[C@H]1O [ATP]
one-pot coupled synthesis of nicotianamine with MtnN and AtNAS1 ([1]; co-substrate L-methionine): we combined MetK with MtnN and AtNAS1 for the one-pot synthesis of NA from ATP

CSCC[C@H](N)C(=O)O [L-methionine]
one-pot coupled synthesis of nicotianamine with MtnN and AtNAS1 ([1]; co-substrate ATP): we combined MetK with MtnN and AtNAS1 for the one-pot synthesis of NA from ATP

CSC[C@H]1O[C@@H](n2cnc3c(N)ncnc32)[C@H](O)[C@@H]1O [MTA]
TLC [2]: MtnN- and AdeD, were active in NAS reaction buffer when assayed individually with their respective substrates

C[S+](CC[C@H](N)C(=O)O)C[C@H]1O[C@@H](n2cnc3c(N)ncnc32)[C@H](O)[C@@H]1O (stereo partly drawn) [SAM]
coupled spectrophotometric assay (MtnN/AdeD, A265) [3]: The truncated variants of AtNAS3 and AtNAS4 also showed strongly increased activities
coupled spectrophotometric assay (MtnN/AdeD, A265) [4]: The truncated variants of AtNAS3 and AtNAS4 also showed strongly increased activities

Nc1ncnc2[nH]cnc12 [adenine]
TLC [5]: MtnN- and AdeD, were active in NAS reaction buffer when assayed individually with their respective substrates
